Test results from patent publication US20110257161A1 (priority 2008, published 2011).
pIC50: −log10 of the molar value. Counter-ions that a name gives are not always drawn.

Target: α7-subtype of nicotinic receptors (Rattus norvegicus, UniProt Q05941)
Test: biochemical
Type: binding

α7-subtype of nicotinic receptors, sequence (Q05941 23-502): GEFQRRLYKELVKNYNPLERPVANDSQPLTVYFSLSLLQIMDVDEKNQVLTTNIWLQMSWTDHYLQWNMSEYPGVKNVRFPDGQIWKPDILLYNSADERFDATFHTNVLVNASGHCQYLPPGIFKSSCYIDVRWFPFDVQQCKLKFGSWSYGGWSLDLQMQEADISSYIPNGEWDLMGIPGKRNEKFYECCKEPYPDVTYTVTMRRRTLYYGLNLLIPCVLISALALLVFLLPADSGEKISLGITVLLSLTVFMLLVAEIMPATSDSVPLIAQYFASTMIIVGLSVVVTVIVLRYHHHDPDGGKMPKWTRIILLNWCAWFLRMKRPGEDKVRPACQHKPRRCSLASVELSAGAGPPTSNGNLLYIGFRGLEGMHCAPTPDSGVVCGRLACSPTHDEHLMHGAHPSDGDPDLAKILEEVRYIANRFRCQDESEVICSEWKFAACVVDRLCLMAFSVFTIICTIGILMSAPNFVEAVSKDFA

Compound	pIC50
O=c1c2ccccc2nnn1-c1ccc(N2CCN3CCC2CC3)cc1 [Compound D1, 3-[4-(1,4-Diaza-bicyclo[3.2.2]non-4-yl)-phenyl]-3H-benzo[d][1,2,3]triazin-4-one fumaric acid salt]	7.66
O=c1c2ccccc2ncn1-c1ccc(N2CCN3CCC2CC3)cc1 [Compound E1, 3-[4-(1,4-Diaza-bicyclo[3.2.2]non-4-yl)-phenyl]-3H-quinazolin-4-one fumaric acid salt]	6.89
